Among the data in PubChem BioAssay (NCI) are TGI values, retold here.

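Five concentrations, 48 hours, 96-well plates. TGI: total growth inhibition.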

Holding throughout (assay): DTP human tumour cell line panel, 48 h
Assay [1] deals with BT-549 breast.
For assay [2], the system named is HT29 colon.
Assay [3] concerns K-562 leukemia.
Assay [4] has as its system MOLT-4 leukemia.
For assay [5], the system named is NCI-H23 lung.
The subject of assay [6] is NCI/ADR-RES ovarian.
Assay [7] has as its system PC-3 prostate.
Assay [8] relates to SF-295 CNS.
Assay [9] deals with SK-MEL-5 melanoma.
Assay [10] has as its system SK-OV-3 ovarian.

One may read the TGI as the concentration giving total growth inhibition. Low values mean more potent growth arrest, high ones less potent growth arrest. Take `COC[C@H](Cc1ccccc1)N=Cc1ccccc1`: the TGI in assay [1], in assay [2], in assay [3], in [4], in assay [5] and in assay [6] was above 100 µM each time. In addition, the concentration for total growth inhibition (TGI) in [7], in [8], in [9] and in [10] was above 100 µM each time.

With `CCOC(=O)C1C(=O)C=C(c2cc(C)ccc2O)CC1c1cccc(Br)c1` (stereo not drawn), the TGI turned out to be 72.7 µM in [1]; 37.5 µM in [2]; 46.8 µM in assay [3]; 43.7 µM in [4]; 46.5 µM in [5]; 46.1 µM in assay [6]. The TGI stood at 40.4 µM in [7], 35.5 µM in [8], 28.5 µM in assay [9] and 43.1 µM in [10].

`O=C1NC(N2CCCC(CO)C2)=N/C1=C\c1ccc(O)cc1` (stereo not drawn): the TGI in [1], in assay [2], in assay [3], in assay [4], in assay [5] and in assay [6] was above 100 µM in each case. Also, the TGI in assay [7], in assay [8], in assay [9] and in assay [10] was above 100 µM in each case.

On to `COC(=O)C(I(OS(=O)(=O)c1ccc(C)cc1)c1ccccc1)=P(c1ccccc1)(c1ccccc1)c1ccccc1`, for which the TGI in assay [1] was 45.5 µM; in [2] it was 42.1 µM; in assay [3], above 100 µM; in assay [4], 84.4 µM; in [5] it was 34.1 µM; in assay [6], above 100 µM. For the same compound, the TGI in assay [7] was determined as 62 µM; in [8], 87 µM; in assay [9], 26.1 µM; in assay [10], 52.4 µM.

For `COc1cc(NS(C)(=O)=O)ccc1N1Cc2cnc3ccc4[nH]ccc1c4c23`, the TGI in assay [1] was above 100 µM; in assay [2], above 100 µM; in [3], above 100 µM; in assay [4], 62.5 µM; in assay [5] it was above 100 µM; in [6], above 100 µM. Moreover, the TGI is above 100 µM in [7], above 100 µM in assay [8] and 75.8 µM in [9].

With `CCOc1c(OC)cc(CNNc2nccs2)cc1OC`, the TGI in assay [1], in assay [2], in assay [3], in assay [4], in assay [5] and in assay [6] was above 100 µM each time. For the same compound, the TGI in [7] was above 100 µM; in assay [8], above 100 µM; in [9], 92.7 µM.

Take `Cc1cc(C)n(CN(Cn2nc(C)cc2C)c2ccc(N(Cn3nc(C)cc3C)Cn3nc(C)cc3C)cc2)n1`: the TGI in [1] is 39.2 µM; in assay [2] it was 45 µM; in assay [3] it was 50.3 µM; in [4] it was above 100 µM; in [5], 58.6 µM; in assay [6], 43.2 µM. The TGI in assay [7] turned out to be 74.6 µM; in assay [8], 83.8 µM; in assay [9] it was 30.9 µM; in assay [10] it was 75.2 µM.

For the compound `COc1cc(OC)cc(N(C)Cc2cnc3nc(N)nc(N)c3c2C)c1`, the TGI in [1], in assay [2], in assay [3], in assay [4], in assay [5] and in assay [6] was above 100 µM in each case. The TGI in assay [7], in assay [8], in assay [9] and in [10] was above 100 µM throughout.

On to `C=C(Cl)C(Cl)(CBr)CCC(Cl)C(C)C` (stereo not drawn), for which the TGI in assay [1] was 27.9 µM; in assay [2], 0.955 µM; in [3], above 100 µM; in assay [4], above 62.9 µM; in assay [5], 50 µM; in assay [6] it was 29.3 µM. Moreover, the TGI is 5.8 µM in [7], 6.48 µM in assay [8], 42.8 µM in [9] and above 89.5 µM in [10].

Regarding `CC(C)(C)OC(=O)N1CC(COS(C)(=O)=O)c2ccc(O)cc21` (stereo not drawn), the TGI came to 3.58 µM in assay [1]; 10.6 µM in assay [2]; 9.54 µM in [3]; 3.92 µM in assay [4]; 3.05 µM in assay [5]; 4.07 µM in assay [6]. Also, the TGI in [7] worked out at 3.83 µM; in assay [8], 10.8 µM; in assay [9], 2.92 µM; in [10] it was 8.88 µM.

For `C[N+](C)([O-])Cc1cccc(NC(=O)c2ccc(C(=O)Nc3cccc(C[N+](C)(C)[O-])c3)cc2)c1`, the TGI in [1], in assay [2], in assay [3], in [4], in assay [5] and in [6] was above 100 µM throughout. Besides, the TGI in assay [7], in assay [8], in [9] and in assay [10] was above 100 µM each time.

Consider `CC(C)(C)OC(=O)N(CCCN)CCCCN(CCCN)C(=O)OC(C)(C)C`, for which the TGI in assay [1], in [2], in assay [3], in [4], in [5] and in assay [6] was above 100 µM each time. Besides, the TGI in assay [7], in [8], in assay [9] and in assay [10] was above 100 µM in each case.

Regarding `CC(=O)CC(=O)Nn1c(-c2cccs2)nc2ccc(I)cc2c1=O`, the TGI in assay [1] was above 71 µM; in assay [2], above 100 µM; in assay [3], above 100 µM; in [4], above 100 µM; in assay [5], above 100 µM; in [6], above 94.4 µM. Besides, the TGI in [7] was above 100 µM; in assay [8], above 100 µM; in assay [9], above 65.5 µM; in assay [10] it was above 100 µM.

Consider `CN1CCN(c2nc3c(c(=O)n(C)c(=O)n3C)n2C)CC1`, for which the total growth inhibition concentration (TGI) in assay [1], in assay [2], in [3], in [5], in [6] and in [7] was above 100 µM in each case. For the same compound, the TGI in assay [8], in [9] and in assay [10] was above 100 µM throughout.

Consider `CCN1CCc2sc3[nH]c(=S)n(C)c(=O)c3c2C1`, for which the total growth inhibition concentration (TGI) in [1], in assay [2], in assay [3], in assay [4], in assay [5] and in assay [6] was above 100 µM in each case. For the same compound, the TGI in assay [7], in [8], in assay [9] and in [10] was above 100 µM throughout.

For the compound `COc1cc2c(cc1C)NC(=O)/C2=C/c1c(Cl)n(C)c2ccccc12`, the TGI in assay [1] is 24.4 µM; in assay [2], 22.5 µM; in [3] it was above 100 µM; in assay [4], 72.7 µM; in [5], 21.6 µM; in [6] it was 24.6 µM. Also, the TGI in [7] turned out to be 29.6 µM; in [8] it was 29.4 µM; in [9] it was 22 µM; in assay [10], 39.8 µM.

As to `COc1ccc(N=Nc2ccc3oc(=O)c(C(=O)Nc4ccc(OC)cc4)cc3c2)cc1`, the concentration for total growth inhibition (TGI) in assay [1] is 39 µM; in assay [2], 55.5 µM; in assay [3], above 100 µM; in assay [4] it was 34.9 µM; in assay [5], 43.8 µM; in assay [6], 51.7 µM. Further, the TGI in [7] was determined as 43.1 µM; in assay [8] it was 51.9 µM; in [9], 33.3 µM; in assay [10] it was 83.5 µM.

For the compound `CCO/C=N/C1=C(C#N)C(c2ccc(OC)c(OC)c2)c2c(-c3ccccc3)nn(-c3ccccc3)c2O1` (stereo not drawn), the TGI in [1] is 23.8 µM; in assay [2], 52.5 µM; in assay [3], 27 µM; in assay [4], 38.4 µM; in [5], 31.1 µM; in assay [6] it was 48.3 µM. The TGI in [7] was above 100 µM; in assay [8], 30.7 µM; in assay [9] it was 24.4 µM; in [10] it was 60.2 µM.

On to `CC1=C2CC3=C(C)C(=O)O[C@H]3C[C@@H](C)[C@@H]2CC1`, for which the total growth inhibition concentration (TGI) in assay [1], in assay [2], in [3], in assay [4], in assay [5] and in assay [6] was above 100 µM throughout. The TGI in [7], in [8], in [9] and in assay [10] was above 100 µM throughout.

Consider `c1ccc(C2(c3cc4ccccc4[nH]3)OCCO2)cc1`, for which the TGI is above 100 µM in assay [1]; above 100 µM in [2]; above 100 µM in assay [3]; 49.4 µM in assay [4]; above 100 µM in assay [5]; above 100 µM in assay [6]. Also, the TGI in assay [7] was above 100 µM; in assay [8] it was above 100 µM; in assay [9] it was 57 µM; in [10], above 100 µM.

Consider `O=C(c1ccccc1)c1cc(-c2ccccc2)c(-c2ccccc2)[nH]c(=O)c1=O`, for which the concentration for total growth inhibition (TGI) in [1] is 53.1 µM; in assay [2] it was above 100 µM; in assay [3], above 100 µM; in [4], 57.2 µM; in assay [5], 49.4 µM; in [6] it was above 100 µM. The TGI in assay [7], in assay [8], in assay [9] and in assay [10] was above 100 µM each time.

Consider `COc1ccc2[nH]c3c(C)c4ccnc(NCCCN(C)CCCNC(=O)NCCCN(C)CCCNc5nccc6c(C)c7[nH]c8ccc(OC)cc8c7c(C)c56)c4c(C)c3c2c1`, for which the TGI is 4.99 µM in [1]; 1.19 µM in assay [2]; above 50 µM in [3]; above 12.4 µM in [4]; above 19 µM in [5]; above 50 µM in [6]. Further, the TGI in assay [7] is 2.79 µM; in assay [10], above 18.4 µM.

Regarding `C=CCn1c(=O)c(-c2ccccc2)c(O)c2ccccc21`, the TGI in assay [1], in assay [2], in assay [3], in [4], in assay [5] and in assay [6] was above 100 µM each time. Further, the total growth inhibition concentration (TGI) in [7], in assay [8] and in assay [9] was above 100 µM in each case.

For `COC[C@@H](N=Cc1ccc(OC)cc1)C(C)C`, the total growth inhibition concentration (TGI) in assay [1], in assay [2], in [3], in assay [4], in assay [5] and in [6] was above 100 µM each time. Besides, the TGI in assay [7], in assay [8], in assay [9] and in assay [10] was above 100 µM each time.

Regarding `OB1OCc2ccccc21`, the TGI is above 100 µM in assay [1]; above 100 µM in assay [2]; above 100 µM in assay [3]; above 100 µM in assay [4]; above 100 µM in assay [5]; 57.9 µM in assay [6]. Besides, the TGI in assay [7] is 64.4 µM; in assay [8], 40.9 µM; in [9], above 100 µM; in [10], 47.1 µM.

`COc1ccc(/C=N/NC(=O)c2ccccc2Nc2ccccc2C(=O)N/N=C/c2ccc(OC)c(OC)c2)cc1OC`: the TGI in assay [1], in assay [2], in assay [3], in assay [4], in assay [5] and in [6] was above 100 µM each time. Further, the TGI in assay [7], in [8], in [9] and in assay [10] was above 100 µM in each case.

As to `C[C@H]1C(=O)C2=C[C@H]1CCC(=O)[C@]1(C)CCCC(C)(C)[C@H]1C[C@H]2O`, the TGI is 94.5 µM in assay [1]; 28.6 µM in [2]; 33.4 µM in assay [3]; above 100 µM in assay [4]; 57.7 µM in assay [5]; 74.2 µM in [6]. Also, the TGI in assay [7], in assay [8] and in assay [10] was above 100 µM in each case.
